In patent publication US20240024261A1, “PHARMACEUTICAL COMPOSITION FOR IMPROVING COGNITIVE ABILITY OR ENHANCING MEMORY” (DR. RAYMOND LAB INC, priority 2020, published 2024):
Values joined by “and” are separate entries in the source; they are usually repeats but may differ in a detail not shown here. Equal entries are not always repeated. Structures can show the parent of a compound that is named as a salt. Where two headings read alike, the source gives them in different places.

Legend:
ICR mouse = test: Passive avoidance test in scopolamine-treated mice; assay type: in vivo; settings: scopolamine i.p., mean ± standard error
Procedure: Each material prepared in the preparation example was prepared so that each may be orally administered to 7 experimental groups in the following and Table 1.
In the following Table 1, only the excipient prepared in the preparation examples was orally administered to a normal control group and a negative control group, respectively, scopolamine was administered to the remaining experimental groups (G2-G7) other than the normal control group (G1) in the behavioral experiment of Test Example 4 to cause cognitive function decline and a memory impairment effect, and then the behavior was observed.
After the test material (drug) of Test Example 3 was administered to each experimental group during the test, a passive avoidance test was performed, and change in mouse behavior was observed.
After each of the test materials was administered to each experimental group of Table 1 of Test Example 3, the passive avoidance test was performed on day 25 by the following procedure: • a) The object was put into an unlit white room of a conditioning box for the passive avoidance test, and then was adapted for 60 seconds. • b) A guillotine door was opened simultaneously with turning on a LED light of the white room, and the object was allowed to explore a dark room for 180 seconds for adaptation. • c) On the next day (day 26) also, the above process was performed and repeated once more, and the object was adapted so that it took around 30 seconds to enter the dark room after turning on the LED light. • d) After administering the drug 1 hour before learning on day 27, 4 mL/kg of Scopolamine which was dissolved at 0.25 mg/mL in a 0.9% saline solution was intraperitoneally administered to the objects of the remaining experimental groups other than the normal control group (G1), respectively, after 30 minutes, and the objects were allowed to stand for 30 minutes in the breeding box. • e) 30 minutes after administering Scopolamine, the objects were put into the unlit white room, the guillotine door was opened simultaneously with turning on the LED light after 10 seconds. When all of the four legs of the objects entered to the dark room, the guillotine door was closed, the time spent (latency time) was measured with a timer, and electrical stimulation was given at 0.5 mA for 3 seconds.

acetylcholine = test: Acetylcholine content in hippocampus after passive avoidance test; assay type: in vivo, mouse; settings: scopolamine, mean ± standard error
Procedure: (§1) On the next day of the end of the passive avoidance test, the test material was administered, and the objects were allowed to stand in a home cage for 30 minutes. Subsequently, Scopolamine was intraperitoneally administered at a dose of 1 mg/kg, and then the objects were allowed to stand in a home cage for 30 minutes.
(§2) A brain tissue was separately separated and stored at −70° C. until analysis.
A choline assay buffer (Biovision, CA, USA) was added to a hippocampal tissue of the separated brain, crushed, and then centrifuged to obtain a supernatant liquid, which was used in the test.
The amount of acetylcholine in the supernatant liquid was measured using a choline/acetylcholine quantification kit (Biovision, CA, USA).

TNF-α = test: Inflammatory cytokine TNF-α in hippocampus (ELISA); assay type: in vivo, mouse; settings: scopolamine, mean ± standard error
Procedure: as §1, §2
(§3) Inflammatory cytokine in a brain tissue was measured with a supernatant liquid obtained by adding a tissue protein extraction reagent (Biovision, CA, USA) to a brain tissue, crushing it, and centrifuging it, using an ELISA Kit (R&D System, MN, USA).

IL-1β = test: Inflammatory cytokine IL-1β in hippocampus (ELISA); assay type: in vivo, mouse; settings: scopolamine, mean ± standard error
Procedure: as §1, §2, §3

[1] = system: Acetylcholine esterase (AchE); assay type: in vivo; settings: forebrain, scopolamine, mean ± standard error
Procedure: as §1, §2
Acetylcholine esterase (AchE) activity was measured with a supernatant liquid obtained by adding a tissue protein extraction reagent (Biovision, CA, USA) to a forebrain tissue, crushing it, and centrifuging it, using an acetylcholinesterase activity assay kit (Biovision, CA, USA).

[2] = Body weight during the test; assay type: in vivo, mouse; settings: mean ± standard error
Procedure: For all objects of each experimental group, when drug administration started, the body weight was measured twice a week from the start of administration until the end of the experiment, and was measured on the date of the final autopsy.

ceramide = test: Ceramide content in brain tissue (forebrain); assay type: in vivo, mouse; settings: for Ceramide content, N-acyl chain length C14 / Ceramide content, N-acyl chain length C16 / Ceramide content, N-acyl chain length C18 / Ceramide content, N-acyl chain length C20 / Ceramide content, N-acyl chain length C22 / Ceramide content, N-acyl chain length C24 / Ceramide content, N-acyl chain length C24:1 / Ceramide content, N-acyl chain length C26 / Ceramide content, N-acyl chain length C26:1 / Ceramide content, Total: Neuromide 100 mg/kg oral, scopolamine
Procedure: Two types of forebrain parts of experimental groups G1, G2, and G5 in the brain tissues separated above were secured, respectively.
The ceramide contents were analyzed therefrom, and the average and the deviation thereof were calculated.
At this time, the measurement of the ceramide content was performed by confirmation and quantitative method of ceramide commonly known to a person skilled in the art.

sphingoid base = test: Sphingoid base content in brain tissue (forebrain); assay type: in vivo, mouse; parameters: Sphingoid base content, Sphingosine (SPN) / Sphingoid base content, S1P / Sphingoid base content, Sphinganine (Sa) / Sphingoid base content, Sa1P: unit not given here; settings: for Sphingoid base content, S1P / Sphingoid base content, Sa1P / Sphingoid base content, Sphinganine (Sa) / Sphingoid base content, Sphingosine (SPN): Neuromide 100 mg/kg oral, scopolamine
Procedure: Two types of forebrain parts of the experimental groups G1, G2, and G5 in the separated brain tissue were secured, respectively, the contents of sphingoid base were analyzed, and the average and the deviation were calculated.
At this time, the measurement of contents of sphingosine (SPN), sphinganine (Sa), sphingosine-1-phosphate (S1P), and sphinganine-1-phosphate (Sa1P) which are sphingoid bases was performed by confirmation and quantitative method of sphingoid bases commonly known to a person skilled in the art.

[3] = Donepezil 1 mg/kg oral, hydrochloride
[4] = Average of two forebrain samples
[5] = individual forebrain samples 5-2, 5-3, listed as Example 3

COc1cc2c(cc1OC)C(=O)C(CC1CCN(Cc3ccccc3)CC1)C2 (stereo not shown) [Donepezil, Donepezil hydrochloride, reference compound]
Passive avoidance test Time taken (latency time) (ICR mouse; [3]): 45.6 s and 45.6 ± 14 s | Acetylcholine (acetylcholine; [3]): 1.8 Nmol/mg protein and 1.8 ± 0.2 Nmol/mg protein | TNF-α (TNF-α; [3]): 186.2 pg/mg tissue protein and 186.2 ± 30.3 pg/mg tissue protein | IL-1β (IL-1β; [3]): 160.9 pg/mg tissue protein and 160.9 ± 23.2 pg/mg tissue protein

CCCCCCCCCCCCCCCC(=O)NC(CO)CO [Neuromide, N-palmitoyl serinol]
Passive avoidance test Time taken (latency time) (ICR mouse; Neuromide 16 mg/kg oral): 22.3 s and 22.3 ± 3.6 s | Passive avoidance test Time taken (latency time) (ICR mouse; Neuromide 40 mg/kg oral): 31 s and 31 ± 8.9 s | Passive avoidance test Time taken (latency time) (ICR mouse; Neuromide 100 mg/kg oral): 35.7 s and 35.7 ± 11.5 s | Acetylcholine (acetylcholine; Neuromide 16 mg/kg oral): 1.1 Nmol/mg protein and 1.1 ± 0.1 Nmol/mg protein | Acetylcholine (acetylcholine; Neuromide 40 mg/kg oral): 1.1 Nmol/mg protein and 1.1 ± 0.3 Nmol/mg protein | Acetylcholine (acetylcholine; Neuromide 100 mg/kg oral): 1.5 Nmol/mg protein and 1.5 ± 0.2 Nmol/mg protein | Acetylcholinesterase (AchE) activity ([1]; Neuromide 16 mg/kg oral): 7.17 mU/mg tissue protein and 7.17 ± 1.75 mU/mg tissue protein | Acetylcholinesterase (AchE) activity ([1]; Neuromide 40 mg/kg oral): 7.79 mU/mg tissue protein and 7.79 ± 1.93 mU/mg tissue protein | Acetylcholinesterase (AchE) activity ([1]; Neuromide 100 mg/kg oral): 6.19 mU/mg tissue protein and 6.19 ± 1.84 mU/mg tissue protein | TNF-α (TNF-α; Neuromide 16 mg/kg oral): 211.5 pg/mg tissue protein and 211.5 ± 25.3 pg/mg tissue protein | TNF-α (TNF-α; Neuromide 40 mg/kg oral): 196.2 pg/mg tissue protein and 196.2 ± 28.4 pg/mg tissue protein | TNF-α (TNF-α; Neuromide 100 mg/kg oral): 189.2 pg/mg tissue protein and 189.2 ± 33 pg/mg tissue protein | IL-1β (IL-1β; Neuromide 16 mg/kg oral): 194.7 pg/mg tissue protein and 194.7 ± 30.6 pg/mg tissue protein | IL-1β (IL-1β; Neuromide 40 mg/kg oral): 188.6 pg/mg tissue protein and 188.6 ± 32.4 pg/mg tissue protein | IL-1β (IL-1β; Neuromide 100 mg/kg oral): 151.5 pg/mg tissue protein and 151.5 ± 24.9 pg/mg tissue protein | Weight ([2]; Neuromide 16 mg/kg oral, day 0 after administration): 34.9 ± 0.4 g | Weight ([2]; Neuromide 16 mg/kg oral, day 1 after administration): 35.1 ± 0.4 g | Weight ([2]; Neuromide 16 mg/kg oral, day 5 after administration): 35.9 ± 0.4 g | Weight ([2]; Neuromide 16 mg/kg oral, day 8 after administration): 36.4 ± 0.5 g | Weight ([2]; Neuromide 16 mg/kg oral, day 12 after administration): 36.4 ± 0.5 g | Weight ([2]; Neuromide 16 mg/kg oral, day 15 after administration): 36.3 ± 0.6 g | Weight ([2]; Neuromide 16 mg/kg oral, day 19 after administration): 37.3 ± 0.7 g | Weight ([2]; Neuromide 16 mg/kg oral, day 22 after administration): 37.2 ± 1^ g | Weight ([2]; Neuromide 16 mg/kg oral, day 26 after administration): 37.2 ± 0.8 g | Weight ([2]; Neuromide 16 mg/kg oral, day 29 after administration): 37.1 ± 0.9 g | Weight ([2]; Neuromide 40 mg/kg oral, day 0 after administration): 34.9 ± 0.4 g | Weight ([2]; Neuromide 40 mg/kg oral, day 1 after administration): 35.5 ± 0.4 g | Weight ([2]; Neuromide 40 mg/kg oral, day 5 after administration): 36 ± 0.3 g | Weight ([2]; Neuromide 40 mg/kg oral, day 8 after administration): 36.7 ± 0.4 g | Weight ([2]; Neuromide 40 mg/kg oral, day 12 after administration): 37.2 ± 0.4 g | Weight ([2]; Neuromide 40 mg/kg oral, day 15 after administration): 37.5 ± 0.4 g | Weight ([2]; Neuromide 40 mg/kg oral, day 19 after administration): 37.8 ± 0.4 g | Weight ([2]; Neuromide 40 mg/kg oral, day 22 after administration): 38 ± 0.4 g | Weight ([2]; Neuromide 40 mg/kg oral, day 26 after administration): 38.3 ± 0.4 g | Weight ([2]; Neuromide 40 mg/kg oral, day 29 after administration): 37.9 ± 0.5 g | Weight ([2]; Neuromide 100 mg/kg oral, day 0 after administration): 34.9 ± 0.4 g | Weight ([2]; Neuromide 100 mg/kg oral, day 1 after administration): 35.3 ± 0.5 g | Weight ([2]; Neuromide 100 mg/kg oral, day 5 after administration): 36.2 ± 0.5 g | Weight ([2]; Neuromide 100 mg/kg oral, day 8 after administration): 36.7 ± 0.7 g | Weight ([2]; Neuromide 100 mg/kg oral, day 12 after administration): 37.6 ± 0.5 g | Weight ([2]; Neuromide 100 mg/kg oral, day 15 after administration): 38 ± 0.6 g | Weight ([2]; Neuromide 100 mg/kg oral, day 19 after administration): 38.6 ± 0.6 g | Weight ([2]; Neuromide 100 mg/kg oral, day 22 after administration): 38.4 ± 0.7 g | Weight ([2]; Neuromide 100 mg/kg oral, day 26 after administration): 38.8 ± 0.6 g | Weight ([2]; Neuromide 100 mg/kg oral, day 29 after administration): 38.9 ± 0.8 g | Ceramide content, N-acyl chain length C14 (ceramide; [4]): 2.71 | Ceramide content, N-acyl chain length C16 (ceramide; [4]): 284.09 | Ceramide content, N-acyl chain length C18 (ceramide; [4]): 3956.61 | Ceramide content, N-acyl chain length C20 (ceramide; [4]): 92.88 | Ceramide content, N-acyl chain length C22 (ceramide; [4]): 51.78 | Ceramide content, N-acyl chain length C24 (ceramide; [4]): 68.30 | Ceramide content, N-acyl chain length C24:1 (ceramide; [4]): 453.42 | Ceramide content, N-acyl chain length C26 (ceramide; [4]): 11.09 | Ceramide content, N-acyl chain length C26:1 (ceramide; [4]): 4.59 | Ceramide content, Total (ceramide; [4]): 4925.46 | ceramide synthesis amount (ceramide; forebrain, Neuromide 100 mg/kg): significantly increased | Ceramide content, N-acyl chain length C14 (ceramide; [5]): 2.92 and 2.50 | Ceramide content, N-acyl chain length C16 (ceramide; [5]): 288.68 and 279.51 | Ceramide content, N-acyl chain length C18 (ceramide; [5]): 3980.71 and 3932.52 | Ceramide content, N-acyl chain length C20 (ceramide; [5]): 94.95 and 90.81 | Ceramide content, N-acyl chain length C22 (ceramide; [5]): 60.05 and 43.51 | Ceramide content, N-acyl chain length C24 (ceramide; [5]): 77.31 and 59.29 | Ceramide content, N-acyl chain length C24:1 (ceramide; [5]): 498.48 and 408.35 | Ceramide content, N-acyl chain length C26 (ceramide; [5]): 12.46 and 9.72 | Ceramide content, N-acyl chain length C26:1 (ceramide; [5]): 4.78 and 4.40 | Ceramide content, Total (ceramide; [5]): 5020.32 and 4830.60 | Sphingoid base content, S1P (sphingoid base; [4]): 183.74 | Sphingoid base content, Sa1P (sphingoid base; [4]): 69.57 | Sphingoid base content, Sphinganine (Sa) (sphingoid base; [4]): 545.74 | Sphingoid base content, Sphingosine (SPN) (sphingoid base; [4]): 2010.00 | S1P increase as compared with the normal control group (sphingoid base; forebrain, Neuromide 100 mg/kg): ≥ 20% | Sphingoid base content, S1P (sphingoid base; [5]): 159.43 and 208.05 | Sphingoid base content, Sa1P (sphingoid base; [5]): 69.16 and 69.98 | Sphingoid base content, Sphinganine (Sa) (sphingoid base; [5]): 506.47 and 585.01 | Sphingoid base content, Sphingosine (SPN) (sphingoid base; [5]): 1861.23 and 2158.78
